# Test results as given in ChEMBL document CHEMBL1201862, “PubChem BioAssay data set” (2004).
# Calls of active or inactive are those of the source.
# Experiments:
# [1] = A549 cell cytotoxicity, dose response, cytotoxicity control, plate reader, cherry-pick, antagonist series (AID 743412); type: functional, cell-based
# [2] = toxicity toward HepG2 liver cells – cell-based, plate reader, cherry-pick, antagonist series, cytotoxicity control, dose response (AID 743416); type: functional
# [3] = blockers of bursicon-stimulated LGR2 cAMP reporter – cell-based, HEK293, CRE-luciferase reporter, cherry pick, set 2, dose response (AID 743343); type: functional;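 also: transfected cells were stimulated with diluted bursicon conditioned medium after compound addition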
# [4] = target: T1, Heat shock factor protein 1 (Mus musculus, UniProt P38532); assay: decrease of HSF1-responsive luciferase luminescence – cell-based, NIH3T3, dose retest, confirmation (AID 2382); type: functional;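 also: NIH3T3 fibroblasts with HSF1-driven luciferase reporter stressed by proteasome inhibitor MG132; luminescence from HSF1-driven luciferase expression after 8 hours of MG132 stress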
# T1 sequence (P38532 whole entry): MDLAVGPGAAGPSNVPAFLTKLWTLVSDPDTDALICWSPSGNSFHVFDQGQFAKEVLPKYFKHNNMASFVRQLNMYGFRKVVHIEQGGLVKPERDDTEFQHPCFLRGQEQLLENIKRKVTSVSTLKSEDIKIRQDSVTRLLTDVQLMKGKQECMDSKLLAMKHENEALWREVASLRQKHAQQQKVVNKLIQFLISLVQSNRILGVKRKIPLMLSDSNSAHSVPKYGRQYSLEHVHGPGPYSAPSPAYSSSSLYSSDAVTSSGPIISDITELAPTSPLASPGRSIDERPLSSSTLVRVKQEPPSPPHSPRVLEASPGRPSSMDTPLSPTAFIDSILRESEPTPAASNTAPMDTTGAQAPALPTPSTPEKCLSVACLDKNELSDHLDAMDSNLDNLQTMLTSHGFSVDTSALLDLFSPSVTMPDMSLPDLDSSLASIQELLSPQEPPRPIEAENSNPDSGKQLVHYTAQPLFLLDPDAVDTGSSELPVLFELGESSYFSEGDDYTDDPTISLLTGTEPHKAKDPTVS
# [5] = tested on: HEK293; assay: EBV LMP1 TES2 canonical NF-kB signalling blockers – cell-based, HEK293, luciferase, cherry-pick, dose response (AID 588343); type: functional; settings: Homo sapiens
# [6] = loss of viability in HepG2 cells – cell-based, CellTiter-Glo, cherry-picked, cytotoxicity control for Shn3 inhibitor project, dose response (AID 624134); type: functional
# [7] = non-specific 3'UTR reporter inhibition in Clone20-Shn3RL – cell-based, Renilla luciferase, cherry-picked, counter-screen for Shn3 inhibitor project, dose response (AID 624133); type: functional
# [8] = target: Nonstructural protein 1 (Influenza A virus, UniProt Q194T2); type: functional, Influenza A virus (A/California/07/2009(H1N1))
# [9] = Luminescence Cell-Based Dose Retest to Confirm Inhibitors of Cancer Stem Cells. [Related pubchem assays (depositor defined):AID2717, AID2721]; type: functional; settings: Homo sapiens
# [10] = target: Photoreceptor-specific nuclear receptor (Homo sapiens, UniProt Q9Y5X4); type: functional, cell-based;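 also: CHO-S cells with Gal4-NCOR and VP16-NR2E3 two-hybrid luciferase reporter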
# [11] = reduction of Shn3 3'UTR-driven luciferase in osteoblasts – cell-based, Clone20 osteoblasts, firefly luciferase, cherry-picked, dose response (AID 624132); type: functional;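 also: firefly luciferase luminescence from reporter carrying the Shn3 3'UTR in osteoblasts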
# [12] = tested on: INS1; assay: INS-1E survival protection against cytokine death – cell-based, luminescence, retest, dose response (AID 449756); type: functional; settings: Rattus norvegicus;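 also: cell death triggered by IL-1 beta plus TNF-alpha plus IFN-gamma mixture; protective hits raise ATP signal compared with cytokine alone wells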
# [13] = target: T2, Carboxy-terminal domain RNA polymerase II polypeptide A small phosphatase 1 (Homo sapiens, UniProt Q9GZU7); assay: CTDSP1 inhibitors, concentration-response, biochemical, absorbance readout, ultra-high-throughput screen actives (AID 540297); type: functional
# T2 sequence (Q9GZU7 whole entry): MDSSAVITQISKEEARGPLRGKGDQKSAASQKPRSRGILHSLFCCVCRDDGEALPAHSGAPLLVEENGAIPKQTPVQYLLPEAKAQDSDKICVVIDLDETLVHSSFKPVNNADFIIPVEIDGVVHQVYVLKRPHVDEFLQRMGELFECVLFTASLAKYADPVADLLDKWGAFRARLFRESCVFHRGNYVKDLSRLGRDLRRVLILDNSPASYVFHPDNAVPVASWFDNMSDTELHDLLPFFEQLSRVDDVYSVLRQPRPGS
# [14] = tested on: Vero; assay: cells; type: functional; settings: Chlorocebus sabaeus
# [15] = cells; type: functional, cell-based; settings: HEK-CNG
# [16] = target: T3, Galanin receptor type 3 (Homo sapiens, UniProt O60755); assay: Fluorescence-based cell-based primary high throughput dose response assay to identify antagonists of the Galanin Receptor 3 (GalR3).; type: functional
# T3 sequence (O60755 whole entry): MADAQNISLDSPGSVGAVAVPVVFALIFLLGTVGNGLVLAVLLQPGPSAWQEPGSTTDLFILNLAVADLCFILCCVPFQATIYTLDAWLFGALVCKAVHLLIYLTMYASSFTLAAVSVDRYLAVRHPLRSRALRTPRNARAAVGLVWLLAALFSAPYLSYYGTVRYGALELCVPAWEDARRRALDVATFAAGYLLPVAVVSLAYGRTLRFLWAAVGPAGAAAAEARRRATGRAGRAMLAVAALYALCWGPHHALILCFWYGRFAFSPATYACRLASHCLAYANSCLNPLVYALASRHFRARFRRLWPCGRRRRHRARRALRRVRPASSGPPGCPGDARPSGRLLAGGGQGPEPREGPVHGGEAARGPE
# [17] = blockers of CRF-binding protein–CRF-R2 complex – cell-based, uHTS hits, 384-well, dose response (AID 651639); type: functional, Homo sapiens; settings: read-out: IC50_Mean
# [18] = target: T4, Corticotropin-releasing factor receptor 2/Corticotropin-releasing factor-binding protein (Homo sapiens, UniProt P24387+Q13324); assay: activators of CRF receptor 2 with binding protein – uHTS hits, confirmation (AID 602473); type: functional; settings: read-out: EC50_Mean
# T4 sequence (Q13324 whole entry): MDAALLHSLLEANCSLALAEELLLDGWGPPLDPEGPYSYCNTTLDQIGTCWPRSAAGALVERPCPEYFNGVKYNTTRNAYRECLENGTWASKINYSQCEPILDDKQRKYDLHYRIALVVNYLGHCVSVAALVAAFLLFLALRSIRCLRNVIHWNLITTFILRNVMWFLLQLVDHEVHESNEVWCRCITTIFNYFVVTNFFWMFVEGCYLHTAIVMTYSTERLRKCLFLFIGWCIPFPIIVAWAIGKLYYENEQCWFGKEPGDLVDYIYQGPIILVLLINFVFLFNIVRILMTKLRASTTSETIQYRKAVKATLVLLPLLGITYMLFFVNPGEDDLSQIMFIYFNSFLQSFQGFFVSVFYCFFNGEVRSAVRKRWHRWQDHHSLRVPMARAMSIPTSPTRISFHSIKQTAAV
# T4 sequence (P24387 whole entry): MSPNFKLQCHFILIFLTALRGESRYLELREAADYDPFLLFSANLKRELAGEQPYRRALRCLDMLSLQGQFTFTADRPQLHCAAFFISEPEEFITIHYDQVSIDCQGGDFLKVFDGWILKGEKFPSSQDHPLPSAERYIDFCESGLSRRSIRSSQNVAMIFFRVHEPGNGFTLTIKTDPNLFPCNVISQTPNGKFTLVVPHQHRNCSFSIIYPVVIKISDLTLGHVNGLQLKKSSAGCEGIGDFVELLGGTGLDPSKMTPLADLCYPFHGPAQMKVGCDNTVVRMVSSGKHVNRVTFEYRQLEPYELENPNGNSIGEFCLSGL
# [19] = target: T4, Corticotropin-releasing factor receptor 2/Corticotropin-releasing factor-binding protein; assay: Dose Response confirmation of uHTS hits for small molecule antagonists of the CRF-binding protein and CRF-R2 receptor complex.; type: functional; settings: read-out: IC50_Mean
# Chain of Photoreceptor-specific nuclear receptor (Q9Y5X4 whole entry, the tested form may be a part): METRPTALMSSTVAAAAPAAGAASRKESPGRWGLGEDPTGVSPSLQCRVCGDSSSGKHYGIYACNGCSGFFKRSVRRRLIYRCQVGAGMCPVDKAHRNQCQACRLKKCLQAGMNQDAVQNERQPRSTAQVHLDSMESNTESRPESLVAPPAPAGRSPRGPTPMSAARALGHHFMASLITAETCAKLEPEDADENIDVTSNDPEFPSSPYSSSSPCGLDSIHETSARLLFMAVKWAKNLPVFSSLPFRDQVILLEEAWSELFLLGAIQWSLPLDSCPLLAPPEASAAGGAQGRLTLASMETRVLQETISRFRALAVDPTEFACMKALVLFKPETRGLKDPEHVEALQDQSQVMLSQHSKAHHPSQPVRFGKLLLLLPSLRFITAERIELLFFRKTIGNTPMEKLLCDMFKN
# Chain of Nonstructural protein 1 (Q194T2 whole entry): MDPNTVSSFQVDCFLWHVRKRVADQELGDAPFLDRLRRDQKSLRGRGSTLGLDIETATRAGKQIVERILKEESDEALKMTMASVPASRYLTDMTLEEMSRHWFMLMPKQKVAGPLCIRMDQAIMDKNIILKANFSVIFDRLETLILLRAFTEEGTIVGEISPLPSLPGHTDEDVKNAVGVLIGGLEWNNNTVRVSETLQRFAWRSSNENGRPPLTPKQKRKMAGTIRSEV
smiles,measurement,setting,value
CC(C)(C)c1ccc(Cn2c(=O)cnc3ccccc32)cc1,AC50,[1],12.6 µM (active)
same,AC50,[2],29.4 µM (active)
same,AC50,[3],38 µM (active)
same,EC50,[4],2.27 µM (active)
same,AC50,[5],6.93 µM (active)
Clc1cc2cccnc2c2ncccc12,AC50,[6],5.34 µM (active)
same,AC50,[7],3.94 µM (active)
same,IC50,[8],3.44 µM (active)
same,AC50,[9],4.73 µM (active)
same,IC50,[10],5.53 µM (active)
same,AC50,[11],4.06 µM (active)
same,AC50,[12],6.84 µM (active)
O=C(CNC(=O)c1cccc(OC(F)F)c1)OCc1cc(=O)n2cc(Br)ccc2n1,IC50,[13],7.09 µM (active)
CCOC(=O)c1cc2c(=O)n3cccc(C)c3nc2n(Cc2ccco2)/c1=N/C(=O)c1cccnc1,IC50,[13],18.8 µM (active)
CCc1cc(OCCCSc2nc(C)cc(O)n2)ccc1Cl,CC50,[14],2.36 µM (active)
same,IC50,[10],3.02 µM (active)
COCC1CCCN(C(=O)c2cc(COc3ccc4ncccc4c3)on2)C1 (stereo not given),EC50,[15],> 29.9 µM (inactive)
same,IC50,[16],1.3 µM (active)
O=C(COc1cc(Cl)ccc1Cl)N1CCNC1=O,IC50,[17],8.63 µM (active)
same,EC50,[18],> 53 µM (inactive)
same,IC50,[19],27.4 µM (active)
O=C(O)C1OC1(c1ccccc1Cl)c1ccccc1Cl (stereo not given),IC50,[17],> 20 µM (inactive)
same,EC50,[18],> 53 µM (inactive)
same,IC50,[19],23.4 µM (active)
COc1ccc(S(=O)(=O)N2CCCCCC2)cc1C(=O)N(C)Cc1ccc(C(C)(C)C)cc1,IC50,[17],13.5 µM (active)
same,EC50,[18],> 53 µM (inactive)
same,IC50,[19],14.6 µM (active)
C=CCC1(CC=C)CCCN1C(=O)c1cc(COc2cncc(Cl)c2)on1,EC50,[15],> 29.9 µM (inactive)
same,IC50,[16],> 1.11 µM (active)
COc1ccc(C)cc1NC(=O)NC1CC(=O)N(c2ccc3c(c2)OCCO3)C1 (stereo not given),IC50,[10],3.25 µM (active)
